{"source": "patent US10179770B2", "about": "“Quinolines derivatives as novel anticancer agents” (GENOSCIENCE PHARMA, priority 2013, dated 2019)", "type_in_all_cases": "cell-based, human", "key": {"[1]": {"test_system": "MOLM-14", "assay": "Cell proliferation assay at 10 μM", "settings": "Homo sapiens, MOLM-14, 72 h, read-out: Cell viability observed at 10 μM", "method_in_brief": "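MOLM-14 suspension cells (30,000/well, MEM alpha with 10% FBS) treated with compound at 10 μM, constant vehicle percentage, for 72 h at 37° C. Outgrowth measured by sulforhodamine B absorbance; each point is mean of two replicates.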"}, "[2]": {"test_system": "A375", "assay": "Cell proliferation assay at 10 μM", "settings": "Homo sapiens, A-375, 72 h, read-out: Cell viability observed at 10 μM", "method_in_brief": "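A375 and HCT-116 cells grown in DMEM with 10% FBS, seeded overnight, then exposed to compound at 10 μM for 72 h at 37 °C, 5% CO2 against vehicle control. Outgrowth read by MTS (CellTiter 96 Aqueous One) absorbance; each point the mean of two replicates.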"}, "[3]": {"test_system": "ALDH+ cancer stem cells (CSC) in MOLM-14 cell line", "assay": "Aldefluor kit assay, ALDH+ compartment analysis", "settings": "for Activity against CSCs in Aldefluor™ assay (proportion of CSCs) / Aldefluor™ positive CSCs (% of control): MOLM-14; for Activity against CSCs in Aldefluor™ assay (proportion of CSCs): dose dependent, Cytarabine up to 3-fold its EC50; for Aldefluor positive CSCs (% of control): MOLM-14 cell line, 72 h incubation; for Aldefluor™ positive CSCs (% of control): 72 h", "description": "Analysis of the of aldehyde dehydrogenase (ALDH) compartment and high activity level of aldehyde dehydrogenase activity (ALDH+) was used to detect tumor initiating cells (cancer stem cells, CSC) population. The Aldefluor™ kit assay (StemCell Technologies) allowed to assess the activity of drugs on CSC cells like in aa MOLM-14 acute myeloid leukemia cell line population. The Aldefluor™ kit assay was used according to the procedure described by the manufacturer. Briefly, MOLM-14 cell line was cultured in RPMI-1640 Medium supplemented with 10% v/v Fetal Bovine Serum (FBS), 1% Penicillin-Streptomycin and maintained at 37° C. with 5% CO2. 5·10^5 cells were used in this assay. Each compound was added at different concentrations (see table 13 and 14), and cell cultures were incubated for 72 h. Vehicle (H2O) was used as a control, and all compounds were tested in a constant percentage of vehicle. Cells obtained from cell culture were incubated for 45 minutes at 37° C. with Aldefluor™ buffer assay containing the Bodipy™-aminoacetaldehyde (BAAA), a fluorescent ALDH aldehyde substrate. ALDH converts the fluorescent substrate BAAA to the Bodipy™-aminoacetic acid (BAA) which is retained in the cell. An active efflux inhibitor is present in the Adelfluor™ assay buffer in order to avoid the active efflux from the cell of the substrate product ALDH dependent converted BAA. The fluorescent signal is directly proportional to the ALDH activity in the cells and is measured by flow cytometry. A negative control is used to measure the background fluorescence level. For such purpose, 4-(N,N-diethylamino)-benzaldehyde (DEAB) was used as selective ALDH inhibitor. A viability cell count was performed using LIVE/DEAD® Fixable Far Red Dead Cell Stain Kit (Invitrogen). The experimental data are analyzed using a computer program, Graphpad Prism (GraphPad Software, Inc. La Jolla, Calif.) and EC50 values were determined as the dose of compound required to reduce absorbance values to 50% of the signal obtained for vehicle treated cell cultures."}}}
{"compound": "CC(C)(C)NC1CCN(c2cc(-c3ccc(Cl)cc3)nc3ccccc23)CC1.Cl.Cl", "note": "[XII-4, 2-(4-chloro-phenyl)-4-(4-N-tert-butylamino-piperidin-1-yl)quinoline dihydrochloride]", "values": [{"measurement": "viability at 10 µM", "setting": "[1]", "value": "< 20", "unit": "%"}, {"measurement": "viability at 10 µM", "setting": "[2]", "value": "< 20", "unit": "%"}]}
{"compound": "Cc1ccc(-c2cc(N3CCC(NC(C)(C)C)CC3)c3ccccc3n2)cc1.Cl.Cl", "note": "[XIII-8, 2-(4-methyl-phenyl)-4-(4-N-tert-butylamino-piperidin-1-yl)quinoline dihydrochloride]", "values": [{"measurement": "Activity against CSCs in Aldefluor™ assay (proportion of CSCs)", "setting": "[3]", "value": "reduced the proportion of CSCs"}, {"measurement": "Aldefluor positive CSCs (% of control)", "setting": "[3]; 5 μM", "value": "84 % of control"}, {"measurement": "Aldefluor positive CSCs (% of control)", "setting": "[3]; 10 μM", "value": "83 % of control"}, {"measurement": "Aldefluor positive CSCs (% of control)", "setting": "[3]; 20 μM", "value": "58 % of control"}, {"measurement": "Aldefluor positive CSCs (% of control)", "setting": "[3]; 40 μM", "value": "23 % of control"}, {"measurement": "viability at 10 µM", "setting": "[1]", "value": "< 20", "unit": "%"}, {"measurement": "viability at 10 µM", "setting": "[2]", "value": "< 20", "unit": "%"}]}
{"compound": "CCN(CC)C1CCN(C(C)c2cc(-c3ccccc3)nc3ccccc23)CC1.Cl.Cl", "note": "(stereo not drawn) [XIX-3, 2-phenyl-4-{1-[4-(N,N-diethylamino)piperidin-1-yl]-eth-1-yl}quinoline dihydrochloride]", "values": [{"measurement": "Aldefluor™ positive CSCs (% of control)", "setting": "[3]; 5 μM", "value": "86 % of control"}, {"measurement": "Aldefluor™ positive CSCs (% of control)", "setting": "[3]; 10 μM", "value": "66 % of control"}, {"measurement": "Aldefluor™ positive CSCs (% of control)", "setting": "[3]; 20 μM", "value": "42 % of control"}, {"measurement": "Aldefluor™ positive CSCs (% of control)", "setting": "[3]; 40 μM", "value": "25 % of control"}, {"measurement": "Activity against CSCs in Aldefluor™ assay (proportion of CSCs)", "setting": "[3]", "value": "reduced the proportion of CSCs"}, {"measurement": "viability at 10 µM", "setting": "[1]", "value": "20 to 40", "unit": "%"}, {"measurement": "viability at 10 µM", "setting": "[2]", "value": "< 20", "unit": "%"}]}
{"compound": "CCN(CC)C1CCN(C(C)c2cc(-c3ccc4ccccc4c3)nc3ccccc23)CC1.Cl.Cl", "note": "(stereo not drawn) [XXIV-3, 2-(2-naphtyl)-4-{1-[4-(N,N-diethylamino)-piperidin-1-yl]-eth-1-yl}quinoline dihydrochloride]", "values": [{"measurement": "viability at 10 µM", "setting": "[1]", "value": "< 20", "unit": "%"}, {"measurement": "viability at 10 µM", "setting": "[2]", "value": "< 20", "unit": "%"}]}
